Experimental data as given in patent US20220280661A1, “GLUCOCORTICOID RECEPTOR RADIOLIGANDS AND METHODS FOR THEIR PREPARATION AND USE” (The Regents of the University of California, priority 2019, published 2022).

Columns and labels:
PC3 tumors = experiment: [18F]-YJH08 uptake in PC3 tumors implanted in the renal capsule; format: in vivo, mouse; settings: renal capsule implant, nu/nu mice
Procedure: For tumor imaging studies, male nu/nu mice were used for the renal capsule tumor implants. The mice were anesthetized with isofluorane (2-3%) and performed with a dorsal midline incision (0.5 cm). With pressure applied on the muscle wall, one kidney was pulled gently and carefully through the small incision. PC3 cells ([…] in 50 μL PBS) were injected under the kidney capsule, which was lifted from the kidney parenchyma. The kidney was placed into the mouse, and the incision closed with 3 surgical sutures. Carprofen (5-10 mg/kg) was administered to the mice during recovery. Mice were observed carefully over 24 hours for the signs of post-operative bleeding, pain and (or) other complications. After surgery, a 14 T Agilent small animal MRI was used to monitor the tumor progression. Animals were studied approximately 10 days post injection of tumor cells.
Lastly, digital autoradiography of the affected kidney was applied to define relative uptake of the radiotracer in the tumor and normal kidney parenchyma (FIGS. 5B and 5C). The radiotracer uptake in the tumor was qualitatively much higher than the level observed in the kidney.

plasma protein = experiment: Plasma protein binding, rapid equilibrium dialysis, mouse plasma; format: in vitro ADME; settings: plasma (rapid equilibrium dialysis device), pH 7.4, mouse plasma
Procedure: Plasma Protein Binding Studies. The rapid equilibrium dialysis (RED) device inserts along with a Teflon base plate (Pierce, Rockford, Ill.) were used for the binding studies. The pH of the human or mouse plasma was adjusted to 7.4 prior to the experiment. DMSO stocks (1 mM) were spiked into the plasma to make a final concentration of 2 μM. The spiked plasma solutions (300 μL) were placed into the sample chamber (indicated by the red ring); and 500 μL of PBS buffer, pH 7.4, was placed into the adjacent chamber. The plate was incubated at 37° C. on an orbital shaker (250 rpm) for 4 hours.
After 4 hours, from the RED plate, aliquots (100 μL) were removed from each side of the insert (plasma and buffer) and dispensed into the 96-well plate. Subsequently, 100 μL of blank plasma was added to the buffer samples and 100 μL of blank buffer was added to all the collected plasma samples. 300 μL of quench solution (50% acetonitrile, 50% methanol, and 0.05% formic acid, warmed up at 37° C.) containing internal standards was added to each well. Plates were sealed, vortexed, and centrifuged at 4° C. for 15 minutes at 4000 rpm. The supernatant was transferred to fresh plates for LC/MS/MS analysis. The sample were analyzed on LC/MS/MS using an AB Sciex API 4000 instrument, coupled to a Shimadzu LC-20AD LC Pump system. Analytical samples were separated using a Waters Atlantis T3 dC18 reverse phase HPLC column (20 mm×2.1 mm) at a flow rate of 0.5 mL/min. The mobile phase consisted of 0.1% formic acid in water (solvent A) and 0.1% formic acid in acetonitrile (solvent B).
The percentage of test compound bound to protein was calculated by the following equations:
% Free=(Concentration in buffer chamber/Concentration in plasma chamber)×100%

## COc1cccc2c1-c1ccc3c(c1C(Cc1ccc([18F])cc1)O2)C(C)=CC(C)(C)N3 (racemic) [[18F]-YJH08, [^18F]-5-(4-fluorobenzyl)-10-methoxy-2,2,4-trimethyl-2,5-dihydro-1H-chromeno[3,4-f]quinoline]
PC3 tumors
  radiotracer uptake in PC3 tumor: ~3 % ID/g

## COc1cccc2c1-c1ccc3c(c1C(Cc1ccc(F)cc1)O2)C(C)=CC(C)(C)N3 (racemic) [YJH08, 5-(4-fluorobenzyl)-10-methoxy-2,2,4-trimethyl-2,5-dihydro-1H-chromeno[3,4-f]quinoline]
Plasma protein
  recovery at 4 h, 2 μM: 100%
